Reference: ChEMBL document CHEMBL1201862, “PubChem BioAssay data set” (2004)
Calls of active or inactive are those of the source. Cut-off read from the data, not from the text of the source, for most assays here: actives have a measured EC50 and inactives only a lower limit.

Tests used:
[1] = cells; type: functional
[2] = target: Genome polyprotein (dengue virus type 2, UniProt P29990); test: Dengue-2 NS5 methyltransferase inhibitors, primary screen, biochemical, confirmation dose response (AID 588689); type: functional
Genome polyprotein, sequence (P29990 2492-3391 limits assumed): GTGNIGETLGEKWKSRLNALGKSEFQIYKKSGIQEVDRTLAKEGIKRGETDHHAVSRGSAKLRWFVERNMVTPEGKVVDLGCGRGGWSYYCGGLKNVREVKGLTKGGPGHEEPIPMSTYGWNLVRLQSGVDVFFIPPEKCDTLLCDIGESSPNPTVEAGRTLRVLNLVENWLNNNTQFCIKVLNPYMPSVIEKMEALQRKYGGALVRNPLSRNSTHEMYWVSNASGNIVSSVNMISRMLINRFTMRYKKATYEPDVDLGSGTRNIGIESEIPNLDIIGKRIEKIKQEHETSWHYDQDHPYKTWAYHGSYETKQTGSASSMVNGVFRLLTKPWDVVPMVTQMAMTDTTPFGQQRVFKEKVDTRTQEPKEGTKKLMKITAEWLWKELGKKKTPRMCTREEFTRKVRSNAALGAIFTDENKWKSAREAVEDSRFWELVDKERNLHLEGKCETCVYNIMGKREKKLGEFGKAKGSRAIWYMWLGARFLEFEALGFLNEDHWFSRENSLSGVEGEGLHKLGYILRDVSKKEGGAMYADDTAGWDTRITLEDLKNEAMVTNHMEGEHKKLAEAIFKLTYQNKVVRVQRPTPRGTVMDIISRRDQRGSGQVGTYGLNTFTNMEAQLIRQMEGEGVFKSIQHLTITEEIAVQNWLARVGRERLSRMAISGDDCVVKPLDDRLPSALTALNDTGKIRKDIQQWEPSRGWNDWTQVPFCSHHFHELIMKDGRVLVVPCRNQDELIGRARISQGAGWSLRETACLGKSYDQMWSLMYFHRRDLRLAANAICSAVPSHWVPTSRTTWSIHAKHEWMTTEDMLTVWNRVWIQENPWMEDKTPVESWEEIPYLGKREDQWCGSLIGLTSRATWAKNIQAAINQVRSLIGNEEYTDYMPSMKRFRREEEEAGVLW

[3] = target: T1, Rac GTPase-activating protein 1 (Homo sapiens, UniProt Q9H0H5); test: MgcRacGAP GTPase-activating activity inhibitors, confirmation, biochemical, ADP Hunter fluorescence, primary and confirmatory (AID 624330); type: functional
T1 sequence (Q9H0H5 whole entry): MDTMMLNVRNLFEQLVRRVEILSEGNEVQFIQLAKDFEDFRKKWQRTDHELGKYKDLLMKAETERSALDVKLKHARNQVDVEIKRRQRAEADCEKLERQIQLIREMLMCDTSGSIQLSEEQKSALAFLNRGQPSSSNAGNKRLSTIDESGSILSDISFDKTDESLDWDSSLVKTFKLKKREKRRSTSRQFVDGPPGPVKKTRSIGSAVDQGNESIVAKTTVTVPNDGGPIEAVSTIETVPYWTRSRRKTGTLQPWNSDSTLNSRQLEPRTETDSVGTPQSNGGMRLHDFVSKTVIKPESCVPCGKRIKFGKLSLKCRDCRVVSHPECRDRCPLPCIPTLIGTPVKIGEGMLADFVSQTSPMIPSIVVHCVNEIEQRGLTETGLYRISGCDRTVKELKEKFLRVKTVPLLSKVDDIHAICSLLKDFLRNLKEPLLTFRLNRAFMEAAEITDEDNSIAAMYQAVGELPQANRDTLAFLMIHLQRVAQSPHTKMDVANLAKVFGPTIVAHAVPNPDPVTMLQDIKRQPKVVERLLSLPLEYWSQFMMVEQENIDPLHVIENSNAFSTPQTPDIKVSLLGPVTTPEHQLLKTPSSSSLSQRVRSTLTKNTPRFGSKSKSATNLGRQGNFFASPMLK

[4] = target: T2, Protein skinhead-1 (Caenorhabditis elegans, UniProt P34707); type: functional
T2 sequence (P34707 whole entry): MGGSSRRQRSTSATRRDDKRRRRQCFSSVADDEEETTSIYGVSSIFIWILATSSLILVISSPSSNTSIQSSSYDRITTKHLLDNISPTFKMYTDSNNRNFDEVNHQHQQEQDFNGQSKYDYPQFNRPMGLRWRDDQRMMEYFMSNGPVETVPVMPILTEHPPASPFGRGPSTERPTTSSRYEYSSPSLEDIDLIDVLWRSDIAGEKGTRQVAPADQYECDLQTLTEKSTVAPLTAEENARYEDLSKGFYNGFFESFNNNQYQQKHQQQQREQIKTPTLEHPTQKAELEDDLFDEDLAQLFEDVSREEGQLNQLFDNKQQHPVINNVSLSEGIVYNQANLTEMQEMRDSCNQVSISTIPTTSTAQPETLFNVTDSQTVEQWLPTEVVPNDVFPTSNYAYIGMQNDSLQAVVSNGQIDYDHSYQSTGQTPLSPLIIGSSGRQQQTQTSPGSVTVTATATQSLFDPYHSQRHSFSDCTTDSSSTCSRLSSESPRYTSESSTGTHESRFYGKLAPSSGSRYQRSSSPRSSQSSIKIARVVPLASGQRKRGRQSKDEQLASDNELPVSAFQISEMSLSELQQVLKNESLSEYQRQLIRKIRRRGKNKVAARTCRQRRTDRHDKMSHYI

[5] = C. albicans growth with fluconazole, confirmation, fluorescence, retest (AID 2467); type: functional, cell-based
[6] = NIH-3T3 fibroblast cytotoxicity, dose response, cytotoxicity control, cell-based, fluorescence, Alamar Blue, secondary assay (AID 2327); type: functional;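 note: NIH-3T3 mouse fibroblasts cultured with fluconazole at 8 µg/mL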
[7] = target: T3, Heat shock factor protein 1 (Mus musculus, UniProt P38532); test: inhibition of MG132-induced HSE-luciferase signal, confirmation, cell-based, NIH3T3, luminescence, dose retest (AID 2382); type: functional;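 note: NIH3T3 fibroblasts with HSF1-driven luciferase reporter stressed by proteasome inhibitor MG132; luminescence from HSF1-driven luciferase expression after 8 hours of MG132 stress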
T3 sequence (P38532 whole entry): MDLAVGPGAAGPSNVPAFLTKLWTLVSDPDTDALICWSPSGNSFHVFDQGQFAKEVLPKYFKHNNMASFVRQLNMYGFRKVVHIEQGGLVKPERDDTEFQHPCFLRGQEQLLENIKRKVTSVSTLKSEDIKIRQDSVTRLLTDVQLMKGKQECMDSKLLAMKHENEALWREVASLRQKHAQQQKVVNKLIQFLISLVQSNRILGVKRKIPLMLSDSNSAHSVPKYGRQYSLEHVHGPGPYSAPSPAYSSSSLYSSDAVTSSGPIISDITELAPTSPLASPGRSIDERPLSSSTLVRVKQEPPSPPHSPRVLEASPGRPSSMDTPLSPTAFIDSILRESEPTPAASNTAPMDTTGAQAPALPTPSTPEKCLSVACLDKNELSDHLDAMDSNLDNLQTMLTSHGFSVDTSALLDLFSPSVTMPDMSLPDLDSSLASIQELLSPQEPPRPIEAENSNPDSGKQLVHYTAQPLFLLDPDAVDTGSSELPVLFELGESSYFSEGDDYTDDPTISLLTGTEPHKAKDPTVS

[8] = target: T3, Heat shock factor protein 1; test: HSF1 potentiators in luciferase reporter cells, confirmation, cell-based, NIH3T3, luminescence, dose retest (AID 435004); type: functional;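 note: stress induced by proteasome inhibitor MG132 added 30 min after compound; luciferase reporter driven by HSF1 response element in NIH3T3 cells; actives raise luminescence as potentiators of the MG132 stress response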
[9] = target: Glucose-6-phosphate 1-dehydrogenase (Homo sapiens, UniProt P11413); test: human G6PD enzyme inhibitors, dose response, selectivity assay for P. falciparum G6PD inhibitor project, biochemical, fluorescence (AID 504792); type: functional
Glucose-6-phosphate 1-dehydrogenase, sequence (P11413 whole entry): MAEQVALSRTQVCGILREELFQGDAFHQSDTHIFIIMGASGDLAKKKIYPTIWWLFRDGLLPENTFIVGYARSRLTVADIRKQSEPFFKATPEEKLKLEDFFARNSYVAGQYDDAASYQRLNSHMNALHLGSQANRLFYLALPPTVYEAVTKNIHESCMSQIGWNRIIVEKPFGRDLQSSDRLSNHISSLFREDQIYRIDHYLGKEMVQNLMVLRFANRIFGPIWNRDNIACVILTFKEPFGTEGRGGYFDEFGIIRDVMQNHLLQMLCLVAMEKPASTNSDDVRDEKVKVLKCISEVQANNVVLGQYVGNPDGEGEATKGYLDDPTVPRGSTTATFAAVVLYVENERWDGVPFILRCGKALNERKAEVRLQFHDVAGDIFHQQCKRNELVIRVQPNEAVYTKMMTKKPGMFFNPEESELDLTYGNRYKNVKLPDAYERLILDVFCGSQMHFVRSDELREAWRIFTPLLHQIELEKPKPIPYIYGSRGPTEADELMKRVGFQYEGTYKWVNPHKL

[10] = target: T4, Corticotropin-releasing factor receptor 2/Corticotropin-releasing factor-binding protein (Homo sapiens, UniProt P24387+Q13324); test: Dose Response confirmation of uHTS hits for small molecule antagonists of the CRF-binding protein and CRF-R2 receptor complex.; type: functional; details: read-out: IC50_Mean
T4 sequence (Q13324 whole entry): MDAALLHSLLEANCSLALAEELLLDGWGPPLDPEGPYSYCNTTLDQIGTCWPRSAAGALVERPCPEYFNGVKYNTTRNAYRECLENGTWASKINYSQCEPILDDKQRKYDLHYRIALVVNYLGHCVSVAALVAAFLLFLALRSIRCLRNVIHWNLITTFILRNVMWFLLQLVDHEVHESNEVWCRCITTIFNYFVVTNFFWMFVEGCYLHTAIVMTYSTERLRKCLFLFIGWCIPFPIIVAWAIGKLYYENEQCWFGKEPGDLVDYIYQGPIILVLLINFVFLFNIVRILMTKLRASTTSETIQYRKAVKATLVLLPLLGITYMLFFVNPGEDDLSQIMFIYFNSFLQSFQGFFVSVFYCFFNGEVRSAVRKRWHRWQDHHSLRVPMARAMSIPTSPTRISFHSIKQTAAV
T4 sequence (P24387 whole entry): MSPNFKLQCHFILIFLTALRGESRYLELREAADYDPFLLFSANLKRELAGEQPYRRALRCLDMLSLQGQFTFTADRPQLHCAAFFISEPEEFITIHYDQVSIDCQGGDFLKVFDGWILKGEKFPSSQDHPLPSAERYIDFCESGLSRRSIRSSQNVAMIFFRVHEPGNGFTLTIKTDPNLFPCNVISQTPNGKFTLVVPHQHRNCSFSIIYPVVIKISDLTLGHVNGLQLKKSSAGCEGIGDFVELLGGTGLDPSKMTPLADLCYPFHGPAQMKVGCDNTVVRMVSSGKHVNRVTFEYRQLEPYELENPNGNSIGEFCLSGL

[11] = target: T4, Corticotropin-releasing factor receptor 2/Corticotropin-releasing factor-binding protein; test: activators of CRF receptor 2 with binding protein – uHTS hits, confirmation (AID 602473); type: functional; details: read-out: EC50_Mean
[12] = test system: INS1; test: beta cell apoptosis inhibitors, cytokine rescue, dose response, luminescence, retest (AID 449756); type: functional, cell-based; details: Rattus norvegicus, INS1;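 note: cell death triggered by IL-1 beta plus TNF-alpha plus IFN-gamma mixture; protective hits raise ATP signal compared with cytokine alone wells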
[13] = cytotoxicity toward DRD oncogenic fibroblasts, dose response, cell-based, non-viral oncogenic, luminescence (AID 1934); type: functional; details: Homo sapiens
[14] = test system: BJ; test: cytotoxicity toward BJ-TERT fibroblasts, dose response, cell-based, RAS-independent, luminescence (AID 1933); type: functional; details: Homo sapiens
[15] = test system: BJ; test: cells; type: functional, cell-based; details: Homo sapiens
[16] = test system: BJ; test: cytotoxicity toward BJ-TERT-LT-ST fibroblasts, dose response, cell-based, RAS-independent, luminescence (AID 1935); type: functional; details: Homo sapiens;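 note: BJ fibroblasts immortalized with TERT plus LT and ST oncogenes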

Cc1ccc(OC(=O)c2sc3ncn(C)c(=O)c3c2C)cc1
IC50 [1]: 15.2 µM (active)

Cc1ccc(C(C2=C(O)CC(C)(C)CC2=O)C2C(=O)CC(C)(C)CC2=O)o1 (stereo not given)
IC50 [2]: 60 µM (active)
IC50 [3]: 56.4 µM (active)

O=C(NN=Cc1cc(Br)c(O)c(Br)c1)c1ccccc1NS(=O)(=O)c1cccs1
IC50 [2]: 27.7 µM (active)

O=C(Nc1ccccc1)Nc1csc2ccccc12
IC50 [4]: > 100 µM (inactive)

Cc1ccc2nc(C)c3c(c2c1)SCC3
IC50 [1]: 24.6 µM (active)

CCn1c(COc2ccc(=O)n(-c3ccccc3)n2)nnc1SCc1cccc(OC)c1
EC50 [5]: > 38 µM (not active)
EC50 [6]: > 160 µM (inactive)

Cc1ccc(C(=O)CC(=O)COc2ccc(Cl)cc2)cc1
EC50 [5]: 1.62 µM (active)
EC50 [6]: > 150 µM (inconclusive)

C/C(=N/Nc1ccc(C)cc1)C1(C)N(O)C(C)(C)C(c2ccco2)=[N+]1[O-] (stereo not given)
EC50 [5]: > 38 µM (not active)
EC50 [6]: 66.1 µM (inconclusive)

CC(C)OP(=O)(c1ccc(N(C)C)cc1)C(O)c1ccccc1 (stereo not given)
EC50 [5]: 3.06 µM (active)
EC50 [6]: > 160 µM (inconclusive)

c1ccc(OCCSc2nc3ccccc3o2)cc1
EC50 [7]: > 195 µM (not active)
IC50 [4]: 32.4 µM (active)

COc1ccc(C(O)(C(=O)NNc2ccc(C)cc2)c2cccs2)cc1 (stereo not given)
EC50 [5]: > 38 µM (not active)
EC50 [6]: > 160 µM (inactive)
EC50 [8]: > 260 µM (inactive)

O=c1[nH]c2ccc(NCc3ccccc3OCc3ccc(Cl)cc3)cc2[nH]1
IC50 [9]: > 80 µM (inactive)

NC(=NOCC(=O)Nc1ccccc1)c1nonc1N
IC50 [10]: > 47.1 µM (inactive)
EC50 [11]: > 53 µM (inactive)

O=C(O)c1ccc2c(c1Nc1ccccc1)C(=O)c1ccccc1C2=O
IC50 [2]: > 100 µM (active)

CCC(=O)c1ccc(OCC(=O)NCCCN2CCOCC2)cc1
IC50 [10]: > 47.1 µM (inactive)
EC50 [11]: > 53 µM (inactive)

COc1cccc(C(=O)C2CCCN(Cc3cccc4c3OCO4)C2)c1 (stereo not given)
EC50 [5]: > 38 µM (not active)
EC50 [6]: > 160 µM (inactive)

CCOC(=O)C(C)On1c(-c2ccc(Cl)cc2)nc2ccc([N+](=O)[O-])cc21 (stereo not given)
IC50 [4]: > 100 µM (inactive)

Nc1nn(S(=O)(=O)c2ccccc2)cc1-c1ccc([N+](=O)[O-])cc1
IC50 [10]: > 47.1 µM (inactive)
EC50 [11]: > 53 µM (inactive)

O=C1CCSc2c1ccc1ccccc21
IC50 [10]: > 47.1 µM (inactive)
EC50 [11]: > 53 µM (inactive)

O=C(Cn1nc(Cl)nc1Cl)Nc1ccccc1
IC50 [10]: > 47.1 µM (inactive)
EC50 [11]: > 53 µM (inactive)

CCN(CC)c1ccc(/N=C/c2ccc([N+](=O)[O-])o2)cc1
EC50 [5]: > 38 µM (not active)
EC50 [6]: > 150 µM (inactive)
AC50 [12]: 43.9 µM (active)

CCCCC(=O)NCc1ccc2c(c1)cc(C)n2C
IC50 [4]: > 100 µM (inactive)

N=c1oc2ccccc2cc1C(=O)NC1CCCCCC1
IC50 [1]: > 50 µM (active)

COc1cc(NC(=O)[C@H](C)NC(=O)N2CCn3c2nc2ccccc23)cc(OC)c1
IC50 [10]: > 47.1 µM (inactive)
EC50 [11]: > 53 µM (inactive)

Cc1c(C(=O)NNC(=O)c2csc(N3CCOCC3)n2)oc2ccccc12
IC50 [1]: 13.2 µM (active)

CCN(C(=O)CCc1nnc2ccc(N3CCC4(CC3)OCCO4)nn12)c1ccccc1
IC50 [10]: > 47.1 µM (inactive)
EC50 [11]: > 53 µM (inactive)

COC(=O)COc1cccc(NC(=O)c2cccc(C)c2)c1
IC50 [1]: 17.6 µM (active)

O=C1/C(=C/c2ccccc2Cl)SC(=S)N1CCC(=O)N1CCCCC1CCO (stereo not given)
EC50 [13]: 45.3 µM (active)
EC50 [14]: 19 µM (active)
EC50 [15]: > 150 µM (inconclusive)
EC50 [8]: > 260 µM (inactive)
EC50 [16]: > 150 µM (not active)

O=S(=O)(c1ccc(F)cc1)n1ccc(-c2cccc(OCc3c(F)cccc3Cl)c2)n1
IC50 [4]: > 100 µM (inactive)

CCc1c(C)nc(SCC(=O)N2CCN(c3ccccc3OC)CC2)nc1O
IC50 [10]: > 47.1 µM (inactive)
EC50 [11]: > 53 µM (inactive)

O=C1/C(=C/c2cccs2)SC(=S)N1CC(=O)N1CCCCC1CCO (stereo not given)
IC50 [4]: > 100 µM (inactive)

COc1cc(NCCCn2ccc(NC(=O)OCc3ccccc3)nc2=O)cc(OC)c1OC
IC50 [9]: > 80 µM (inactive)
